{
  "source": "patent US20110213236A1",
  "about": "“THERAPEUTIC COMPOSITIONS, DEVICES AND METHODS FOR OBSERVING TREATED TISSUES” (IMMUNOPATH PROFILE, INC., priority 2008, published 2011)",
  "type_in_all_cases": "in vivo, human",
  "key": {"atrial fibrillation": {"system": "atrial fibrillation", "assay": "Atrial fibrillation patient treated with Cardizem and subject composition", "excerpt": "We see the same effect in the remarkable drug, Levodopa, in the treatment of Parkinsonism with the side effects of stroke, heart attack, and substantia nigra, basal ganglia damage. […] The total studies were almost 30,000 in number and BIOMARKERS TISSUE […] AND […] TARGETS FOR CARDIAC […] Cardiac arrhythmia nutritional deficiencies, 496 studies compared with:\nVitamin B1 was cited as the most critical of preventing and reversing arrhythmia in starvation studies. Omega-3 fish oil was shown pre-clinically to be effective in the animal heart studies: after it was digested from and enzymatic release from glycerol was not only shown by Leaf in vitro in the isolated beating animal heart muscle to prevent toxicity effects of toxic chemicals. On our chemical moiety orientated spreadsheet where we listed more than 1,400 studies documenting the efficacy of magnesium.\nWith complete components listed in the spreadsheet of indicated diseases, giving a more complete list, provides by maximizing and optimizing efficacy and safety in the foregoing subject composition free of undesirable effects not only for the treatment of disease but for averting these undesirable side-effects. […]"}, "[1]": {"system": "degenerative osteoarthritis of the knee", "assay": "Degenerative osteoarthritis of the knee and pulled ligament, lotion", "details": "600 mg", "protocol": "A dentist was diagnosed with degenerative osteoarthritis of the left knee in 2001, by an orthopedic surgeon at the Henry Ford Health System in Farmington Hillsi Mich. At that time, they were […], and was working 55 hours per week at their dental practice. The orthopedic surgeon advised a complete knee replacement since the joint space was minimal as per the M.Rt. The meniscus had worn away from athletics and job requirements. The option was chosen of using occasional steroid injections in times of severe inflammation along with the daily use of Celebrex until they could no longer function, rather than have such an irreversible traumatic operation, at their age. The doctor agreed. Their quality of life was affected as was their comfort during work.\nA few years later, the right knee ligaments were starting to weaken resulting in much pain and dysfunction, the now patient's gait was hobbled to a severe limp.\nA composition of the subject invention in lotion form was applied twice daily after warming the area with a moist-heat heating pad for a few minutes.\nPlans for a knee replacement were put on hold. The patient subsequently suffered a ligament pulled ligament in the groin. The ligament was also treated with the same composition In three days the pain was gone."}, "gout": {"system": "gout", "assay": "Gout", "details": "locally added to the transdermal cream", "excerpt": "This acute musculoskeletal strain and severe foot pain occurred when getting out of bed, and standing with bare feet. The strain was associated with extensive standing and walking without their customary shoe arch support. […] The use of Advil liquid filled capsules solubilized ibuprofen locally added to the transdermal cream expedited the reversal of acute gout after one-two applications.\nWhen used transdermally on all these examples, the permeability was increased with the subsequent use of the heating pad, but in the case of the Gout, it was used at its mildest level. […] In the treatment of Gout, the patient responded first to the Resveratrol enriched transdermal cream as in Example Group 2 locally applied used 3 times daily, with Garlic powder by Oregon Wild Harvest, specially processed, air-dried, and ground with a water-cooled grinding system to avoid generating heat, was sprinkled onto the wound as an anti-fungal agent derived from the cloves and root system of the Garlic plant and serving as a GRAS item to impart the innate immunity found in the defensin adaptogen of the plant, with good success."}},
  "data": [
    {"smiles": "COc1ccc([C@@H]2Sc3ccccc3N(CCN(C)C)C(=O)[C@@H]2OC(C)=O)cc1", "note": "[Cardizem]", "values": [
      {"measurement": "side effects on the second dose", "setting": "atrial fibrillation", "result": "pain, inability to walk, and weakness"}
    ]},
    {"smiles": "CC(C)Cc1ccc(C(C)C(=O)O)cc1", "note": "(stereo not drawn) [Ibuprofen]", "values": [
      {"measurement": "effect on knee pain and dysfunction", "setting": "[1]", "result": "helpful but not therapeutic"}
    ]},
    {"smiles": "CC(C)Cc1ccc(C(C)C(=O)O)cc1", "note": "(stereo not drawn) [Advil, ibuprofen]", "values": [
      {"measurement": "applications until reversal of acute gout", "setting": "gout", "result": "one-two"}
    ]}
  ]
}
